Columns and labels:
Zika virus = assay: Functional CPE-based assay to measure dose dependent changes in antiviral-drug inhibitory efficacy against Zika virus MR766 in Vero E6 miRFP670 cells. Cells are treated with antiviral candidates that are serially diluted. EC50 is reported via analysis of MTS assay as a readout of CPE. The assay has been performed by KU Leuven.; assay type: organism-based, Chlorocebus sabaeus, Vero C1008; details: Zika virus
dengue virus type 2 = assay: Functional assay to measure dose dependent changes in antiviral-drug inhibitory efficacy against Dengue virus type 2 New Guinea C in Vero E6 miRFP670 cells (cotreated with P-gp inhibitor, CP100356). Cells are treated with antiviral candidates that are serially diluted, following infection, cells are fixed. EC50 is reported via analysis of fluorescence intensity using high-content imager. The …; assay type: organism-based, Chlorocebus sabaeus, Vero C1008; details: Dengue virus

OCC#C[C@H](Nc1ccc2c(c1)CNC2)c1cc(Cl)cc2[nH]ncc12
EC50 (Zika virus; Vero C1008): > 50 µM
EC90 (Zika virus; Vero C1008, Baseline response 0 %, Hill slope -0.322, Maximum measured 7.802 %, Maximum response 100 %, Minimum measured -1.073 %, R squared 0.225): > 50 µM
EC90 (Zika virus; Vero C1008, Maximum measured -0.957 %, Minimum measured -6.863 %): > 50 µM
EC50 (dengue virus type 2; Vero C1008): > 50 µM
EC90 (dengue virus type 2; Vero C1008, Baseline response 0 %, Hill slope -0.86, Maximum measured 99.542 %, Maximum response 100 %, Minimum measured 57.079 %, P-gp concentration 500 nM, R squared 0.671, P-gp inhibitor CP100356): > 50 µM

CNC(=O)[C@H](Nc1cc(CN)cc(C(=O)O)c1)c1cc(Cl)cc(C2CC2)c1
EC50 (Zika virus; Vero C1008): > 50 µM
EC90 (Zika virus; Vero C1008, Maximum measured 1.859 %, Minimum measured -2.673 %): > 50 µM
EC50 (dengue virus type 2; Vero C1008): > 50 µM
EC90 (dengue virus type 2; Vero C1008, Maximum measured 120.74 %, Minimum measured 102.141 %, P-gp concentration 500 nM, P-gp inhibitor CP100356): > 50 µM

NCc1cccc(NC(=O)[C@H](NC(=O)OCc2ccccc2)c2ccc(Br)c(Cl)c2)c1
EC50 (Zika virus; Vero C1008): > 50 µM
EC90 (Zika virus; Vero C1008, Baseline response 0 %, Hill slope 4.111, Maximum measured 16.618 %, Maximum response 100 %, Minimum measured -5.242 %, R squared 0.822): > 50 µM
EC50 (dengue virus type 2; Vero C1008): 27.9 µM
EC90 (dengue virus type 2; Vero C1008, Baseline response 0 %, Hill slope -1.252, Maximum measured 107.5 %, Maximum response 100 %, Minimum measured 22.965 %, P-gp concentration 500 nM, R squared 0.543, P-gp inhibitor CP100356): > 50 µM

NCc1cc(/C=C/C(=O)O)cc(NC(=O)c2cc(Cl)cc(NC(=O)OCc3ccccc3)c2)c1
EC50 (Zika virus; Vero C1008): > 50 µM
EC90 (Zika virus; Vero C1008, Baseline response 0 %, Hill slope -0.386, Maximum measured 1.272 %, Maximum response 100 %, Minimum measured -0.891 %, R squared 0.02): > 50 µM
EC50 (dengue virus type 2; Vero C1008): > 50 µM
EC90 (dengue virus type 2; Vero C1008, Maximum measured 167.512 %, Minimum measured 81.46 %, P-gp concentration 500 nM, P-gp inhibitor CP100356): > 50 µM

NCc1cc(NC(=O)c2cc(Cl)cc(NC(=O)OCc3ccccc3)c2)cc([C@@H]2C[C@H]2C(=O)O)c1
EC50 (Zika virus; Vero C1008): > 50 µM
EC90 (Zika virus; Vero C1008, Maximum measured -4.084 %, Minimum measured -7.869 %): > 50 µM
EC50 (dengue virus type 2; Vero C1008): > 12.5 µM
EC90 (dengue virus type 2; Vero C1008, Maximum measured 109.098 %, Minimum measured 97.886 %, P-gp concentration 500 nM, P-gp inhibitor CP100356): > 12.5 µM

NCc1cccc(NC(=O)c2cc(Cl)cc3[nH]ncc23)c1
EC50 (Zika virus; Vero C1008): > 50 µM
EC90 (Zika virus; Vero C1008, Maximum measured 0.74 %, Minimum measured -1.239 %): > 50 µM
EC50 (dengue virus type 2; Vero C1008): > 50 µM
EC90 (dengue virus type 2; Vero C1008, Maximum measured 106.767 %, Minimum measured 104.405 %, P-gp concentration 500 nM, P-gp inhibitor CP100356): > 50 µM

NCc1cccc(NC(=O)c2cc(Cl)cc(C3CC3)c2)c1
EC50 (Zika virus; Vero C1008): 15.7 µM
EC90 (Zika virus; Vero C1008, Baseline response 0 %, EC90 CI (lower) 20.759 uM, EC90 CI (upper) 27.074 uM, Hill slope 5.361, Maximum measured 91.947 %, Maximum response 100 %, Minimum measured -3.838 %, R squared 0.99): 23.7 µM
EC50 (dengue virus type 2; Vero C1008): 21.6 µM
EC90 (dengue virus type 2; Vero C1008): 24.7 µM

C[C@@]1(c2cccc(CN)c2)C[C@H]1c1cc(Cl)cc(NC(=O)OCc2ccccc2)c1
EC50 (Zika virus; Vero C1008): > 50 µM
EC90 (Zika virus; Vero C1008, Maximum measured 2.64 %, Minimum measured -3.015 %): > 50 µM
EC50 (dengue virus type 2; Vero C1008): 2.11 µM
EC90 (dengue virus type 2; Vero C1008, Baseline response 0 %, Hill slope -1.211, Maximum measured 80.402 %, Maximum response 100 %, Minimum measured 6.127 %, P-gp concentration 500 nM, R squared 0.862, P-gp inhibitor CP100356): > 6.25 µM

CCOCCNC(=O)c1cc(Cl)ccc1NS(=O)(=O)c1ccc(Oc2ccccc2Cl)cc1
EC50 (Zika virus; Vero C1008): > 50 µM
EC90 (Zika virus; Vero C1008, Maximum measured 1.013 %, Minimum measured -2.996 %): > 50 µM
EC50 (dengue virus type 2; Vero C1008): 7.26 µM
EC90 (dengue virus type 2; Vero C1008, Baseline response 0 %, EC90 CI (lower) 5.297 uM, EC90 CI (upper) 7.186 uM, Hill slope -13.477, Maximum measured 106.241 %, Maximum response 100 %, Minimum measured 0.021 %, P-gp concentration 500 nM, R squared 0.993, P-gp inhibitor CP100356): 8.55 µM

C=CC[C@H](Nc1cc(Cl)cc(NC(=O)OCc2ccccc2)c1)c1ccc(-c2nn[nH]n2)cc1
EC50 (Zika virus; Vero C1008): 2.26 µM
EC90 (Zika virus; Vero C1008, Baseline response 0 %, EC90 CI (lower) 3.03 uM, EC90 CI (upper) 8.689 uM, Hill slope 2.685, Maximum measured 114.091 %, Maximum response 100 %, Minimum measured 6.468 %, R squared 0.926): 5.13 µM
EC50 (dengue virus type 2; Vero C1008): < 0.391 µM
EC90 (dengue virus type 2; Vero C1008): 0.683 µM

O=C(NC1CCCCC1)c1cc(Cl)ccc1NS(=O)(=O)c1ccc(Oc2ccccc2Cl)cc1
EC50 (Zika virus; Vero C1008): > 50 µM
EC90 (Zika virus; Vero C1008, Baseline response 0 %, Hill slope 0.673, Maximum measured 7.428 %, Maximum response 100 %, Minimum measured -1.415 %, R squared 0.499): > 50 µM
EC50 (dengue virus type 2; Vero C1008): 3.2 µM
EC90 (dengue virus type 2; Vero C1008): 3.72 µM

O=C(NCC1CC1)c1cc(Cl)ccc1NS(=O)(=O)c1ccc(Oc2ccccc2Cl)cc1
EC50 (Zika virus; Vero C1008): > 50 µM
EC90 (Zika virus; Vero C1008, Maximum measured -0.067 %, Minimum measured -1.21 %): > 50 µM
EC50 (dengue virus type 2; Vero C1008): 6.05 µM
EC90 (dengue virus type 2; Vero C1008, Baseline response 0 %, Hill slope -26.927, Maximum measured 110.675 %, Maximum response 100 %, Minimum measured 0.394 %, P-gp concentration 500 nM, R squared 0.827, P-gp inhibitor CP100356): 6.57 µM
